Experiments:
[1] = system: petunia leaf disks transformed with pMON546 (CaMV35S/EPSP synthase gene); assay: Leaf disk callus growth on glyphosate media; type: cell-based; details: within 10 days
Experimental: (§1) Leaf disks with diameters of 6 mm (1/4 inch) were taken from surface-sterilized petunia leaves. They were cultivated on MS104 agar medium for 2 days to promote partial cell wall formation at the wound surfaces. They were then submerged in a culture of A. tumefaciens cells containing both pMON546 and GV3111-SE which had been grown overnight in Luria broth at 28° C., and shaken gently. The cells were removed from the bacterial suspension, blotted dry, and incubated upside down on filter paper placed over "nurse" cultures of tobacco cells, as described by Horsch (1980). After 2 or 3 days, the disks were transferred to petri dishes containing MS media with 500 μg/ml carbenicillin and 0. 0.1, 0.25, or 0.5 mM glyphosate (sodium salt), with no nurse cultures.
(§2) Control tissue was created using A. tumefaciens cells containing the helper plasmid pGV3111-SE and a different plant transformation vector, pMON505, which contained a T-DNA region with a NOS/NPTII/NOS kanamycin resistance gene and a NOS selectable marker gene identical to pMON546, but without the CaMV35S/EPSP synthase gene.

[2] = system: control petunia leaf disks (pMON505); assay: Leaf disk callus growth on glyphosate media; type: cell-based; details: within 10 days
Experimental: as §1, §2

[3] = molecular target: T1, petunia EPSP synthase glycine (101) to alanine variant (Petunia hybrida, UniProt P11043, G173A); assay: EPSP synthase kinetic constants (appKi glyphosate, appKm PEP); type: biochemical
T1 construct: made in house; host or cells: E. coli
T1 sequence (P11043 73-516 G173A): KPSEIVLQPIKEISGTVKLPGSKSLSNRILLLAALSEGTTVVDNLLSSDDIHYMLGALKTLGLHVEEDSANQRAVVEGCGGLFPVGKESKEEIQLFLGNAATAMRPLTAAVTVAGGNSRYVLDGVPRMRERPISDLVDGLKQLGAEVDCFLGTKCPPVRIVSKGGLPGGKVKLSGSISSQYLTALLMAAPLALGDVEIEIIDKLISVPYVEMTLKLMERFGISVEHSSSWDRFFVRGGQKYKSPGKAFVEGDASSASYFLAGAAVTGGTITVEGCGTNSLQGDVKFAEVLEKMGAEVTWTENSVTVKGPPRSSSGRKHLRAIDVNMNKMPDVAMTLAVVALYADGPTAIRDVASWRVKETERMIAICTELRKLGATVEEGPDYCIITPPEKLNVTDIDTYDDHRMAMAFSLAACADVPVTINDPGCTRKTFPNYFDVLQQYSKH
Experimental: (§3) To an assay mix (40 μl) containing shikimate-3-phosphate (2 mM), ^14 C-phosphoenolpyruvate (1 mM, 1.2 mCi/mmol), ammonium molybdate (0.1 mM), potassium fluoride (5 mM) in 50 mM HEPES-KOH, pH 7, was added the extract and incubated at 25° C. for 2 mins. The reaction was quenched by the addition of 50 μl of 50 μl of 90% ethanol/0.1M acetic acid, pH 4.5. 70 μl of the reaction mixture was loaded on a SynchroPak AX100 HPLC column (0.4×25 cm) and the column was eluted with 0.5M potassium phosphate, pH 5.5 at 1 ml/min. The radioactivity of the eluent was monitored using a Radiomatic Flo-One Beta Instrument. (Radiomatics, Fla.). The EPSP synthase activity was determined by measurement of the conversion of ^14 C-PEP to ^14 C-EPSP synthase, both of which are resolved under the above conditions of chromatography. The protein content of the extract was determined by the method of Bradford (Biorad Labs, Calif.). The specific activity of the extract is expressed as nanomoles of EPSP synthase formed/min/mg protein.
(§4) Kinetic constants (appKm PEP and appKi glyphosate) were determined for EPSP synthase as described below. Substrate kinetic parameters were determined at pH 7.0 in 50 mM HEPES (N-[2-hydroxyethyl]piperazine-N'-[2-ethanesulfonic acid]) buffer in the presence of 2 mM S3P and varying amounts of ^14 C-PEP (10 μM-400 μM), for 2.0 minutes at 25° C. Reactions were quenched with 100 mM Na Acetate in ethanol, pH 4.5, centrifuged and analyzed for product EPSP formation by HPLC with flow radioactivity detection. HPLC conditions were 0.35 MKPi, pH 6.5, on a Synchropak AX100 column at 1.0 ml/min.

[4] = molecular target: T2, pMON8186 encoded petunia EPSP synthase variant (glycine (101) to alanine and glycine (144) to aspartic acid) (Petunia hybrida, UniProt P11043, G173A/G216D); assay: as above; type: biochemical
T2 construct: GGT codon for glycine (144) in the mature petunia EPSP synthase; made in house; host or cells: E. coli SR481
T2 sequence (P11043 73-516 G173A/G216D): as the sequence (P11043 73-516 G173A) above, with G144D counted along it
Experimental: The balance of the #215 preculture (~750 μl) was used to inoculate 2 ml of MOPS medium containing 50 μg/ml carbenicillin and was shaken overnight at 37° C. to reach saturation. Plasmid DNA was isolated from an aliquot of the saturated culture using an alkaline lysis procedure. The plasmid was designated pMON8186. An aliquot of the pMON8186 plasmid was used to transform the E. coli host SR481 (described above) and reselected on MOPS medium containing 10 mM glyphosate and 50 μg/ml carbenicillin. A single glyphosate resistant colony of pMON8186 was picked off the selection plate and used to inoculate 3 ml of 2XYT bacterial medium containing 50 μg/ml carbenicillin. The culture was then aerated on rotating wheel at 37° C. until saturated, then it was used to inoculate a larger 500 ml culture. The large culture was grown to saturation by shaking it overnight at 37° C. in a water bath. The bacterial cells were lysed and the extracts were assayed for EPSPS activity.
Specifically, the bacterial cell paste was washed twice with 0.9% saline, suspended in buffer (100 mM Tris-HCl, 5 mM benzamidine HCl) and passed twice through the French Pressure Cell at 1000 psi. The cell extract was separated from the cells by centrifuging at 15,000 x gravity for 10 mins. at 5° C. It was desalted using Sephadex G-50 (Pharmacia, Piscataway, N.J.). The desalted extract was assayed for EPSP synthase activity as follows:
as §3, with “70 μl of the reaction mixture was loaded on a SynchroPak AX100 HPLC column (0.4×25 cm) and the column was eluted with 0.5M potassium phosphate, pH 5.5 at 1 ml/min.” left out, “(Radiomatics, Fla.).” left out
as §4, with “HPLC conditions were 0.35 MKPi, pH 6.5, on a Synchropak AX100 column at 1.0 ml/min.” left out

MP4 cells = assay: Suspension culture of petunia cells in glyphosate medium; type: cell-based; details: MS media containing 0.5 mM glyphosate (sodium salt); estimated; read-out: cells which survived, of the starting population
Experimental: The starting cell line, designated as the MP4 line, was derived from a Mitchell diploid petunia (see e.g., Ausubel 1980). The MP4 cells were suspended in Murashige and Skoog (MS) culture media, (GIBCO, Grand Island, N.Y.) All transfers involved dispensing 10 ml of suspension cultures into 50 ml of fresh media. Cultivation periods until the next transfer ranged from 10 to 14 days, and were based on visual indications that the culture was approaching saturation.
Approximately 10 ml of saturated suspension culture (containing about 5×10^6 cells) were transferred into 50 ml of MS media containing 0.5 mM glyphosate. The sodium salt of glyphosate was used throughout the experiments described herein. The large majority of cells were unable to reproduce in the presence of the glyphosate. The cells which survived (estimated to be less than 1% of the starting population) were cultured in 0.5 mM glyphosate and transferred to fresh media containing glyphosate every 10 to 14 days.

[5] = 0.1 mM glyphosate (sodium salt)
[6] = 0.25 mM glyphosate (sodium salt)
[7] = 0.5 mM glyphosate (sodium salt)

O=C(O)CNCP(=O)(O)O [glyphosate, N-phosphonomethylglycine]
callus growth [1, 5]: little detectable difference between the control disks and the transformed tissue
callus growth [1, 6]: substantial growth of transformed tissue
callus growth [1, 7]: a significant number of calli grew
callus growth [2, 5]: little detectable difference between the control disks and the transformed tissue
callus growth [2, 6]: very little growth of callus
callus growth [2, 7]: no callus growth
Ki [3]: 2000 µM
Ki/Km ratio ([3]; Ki glyphosate / Km PEP): 10.0
Ki for glyphosate [4]: 348 µM
Ki/Km ratio ([4]; Ki glyphosate / Km PEP): 7.7
viability at 500 µM (MP4 cells): < 1%
